Measured values: patent publication US8871753B2, “Macrocyclic compounds and their use as kinase inhibitors” (Incyte Corporation, priority 2008, dated 2014)
Structures can show the parent of a compound that is named as a salt. Where two headings read alike, the source gives them in different places.

Key:
Type in all cases: biochemical
[1] = biological target: T1, human JAK2 (a.a. 828-1132) (Homo sapiens, UniProt O60674); assay: In vitro JAK kinase assay (HTRF, phosphorylation of a biotinylated peptide), JAK2
T1 construct: JAK2 (a.a. 828-1132); His tag (N); made in house; host or cells: insect cells (baculovirus)
Outline: (§1)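 Kinase reactions ran at room temperature for 1 h with ATP matched per isoform (JAK1 90 μM, JAK2 30 μM, JAK3 3 μM). After an EDTA stop, the phosphorylated biotin-peptide was read by HTRF using Eu-Py20 and SA-APC after 40 min binding.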

[2] = biological target: T2, Recombinant Human Anaplastic Lymphoma Kinase (Homo sapiens, UniProt Q9UM73); assay: ALK HTRF kinase assay
T2 construct: purchased Invitrogen, Carlsbad, Calif
Excerpt: Materials: Recombinant Human Anaplastic Lymphoma Kinase was purchased from Invitrogen, Carlsbad, Calif. Peptide substrate (Biotin-[…]-amide) was custom synthesized at EZBiolab, Westfield, Ind. Streptavidin conjugated SureLight-Allophycocyania and LANCE Eu-W1024 labeled anti-phosphotyrosine antibody were from Perkin-Elmer, Boston, Mass. Microplates were from Corning Inc., Acton, Mass. All other reagents were from Sigma, St. Louis, Mo.
Plates were read in Fusion α-FP instrument (Perkin-Elmer). […] Signal=Bottom+(Top−Bottom)/(1+10^((Log(IC50)−Log [I])*Hill Slope) Bottom and Top refer to the post and pre-transition baselines, respectively.

[3] = biological target: TYK2 (Homo sapiens, UniProt P29597); assay: TYK2 kinase inhibition (Table A1)
[4] = biological target: T3, human JAK1 (a.a. 837-1142) (Homo sapiens, UniProt P23458); assay: In vitro JAK kinase assay (HTRF, phosphorylation of a biotinylated peptide), JAK1; conditions: read-out: JAK1 IC50
T3 construct: human JAK1 (a.a. 837-1142); His tag (N); made in house; host or cells: insect cells (baculovirus)
Outline: as §1

[5] = biological target: T4, human JAK3 (a.a. 781-1124) (Homo sapiens, UniProt P52333); assay: In vitro JAK kinase assay (HTRF, phosphorylation of a biotinylated peptide), JAK3
T4 construct: JAK3 (a.a. 781-1124); His tag (N); made in house; host or cells: insect cells (baculovirus)
Outline: as §1

[6] = compound at a concentration of 500 nM or 1 mM (not specified), cells shown as percentage
[7] = method AA1 (30 μM ATP) or AA2 (1000 μM ATP), not stated per value
[8] = compound at 500 nM or 1 mM, 90 μM ATP
[9] = method AA1 (90 μM ATP) or AA2 (1000 μM ATP), not stated per value
[10] = method AA1 (3 μM ATP) or AA2 (1000 μM ATP), not stated per value
[11] = Table B1, cells without percent sign

T4 sequence (P52333 781-1124): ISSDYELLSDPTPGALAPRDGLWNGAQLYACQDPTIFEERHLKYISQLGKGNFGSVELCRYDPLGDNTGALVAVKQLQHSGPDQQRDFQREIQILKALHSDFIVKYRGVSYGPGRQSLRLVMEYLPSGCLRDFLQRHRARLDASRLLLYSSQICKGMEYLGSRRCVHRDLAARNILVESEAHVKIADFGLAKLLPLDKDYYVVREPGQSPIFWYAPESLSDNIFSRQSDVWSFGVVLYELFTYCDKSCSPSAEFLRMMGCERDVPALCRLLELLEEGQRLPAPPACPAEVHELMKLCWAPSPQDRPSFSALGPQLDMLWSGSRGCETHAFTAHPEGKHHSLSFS
T3 sequence (P23458 849-1154): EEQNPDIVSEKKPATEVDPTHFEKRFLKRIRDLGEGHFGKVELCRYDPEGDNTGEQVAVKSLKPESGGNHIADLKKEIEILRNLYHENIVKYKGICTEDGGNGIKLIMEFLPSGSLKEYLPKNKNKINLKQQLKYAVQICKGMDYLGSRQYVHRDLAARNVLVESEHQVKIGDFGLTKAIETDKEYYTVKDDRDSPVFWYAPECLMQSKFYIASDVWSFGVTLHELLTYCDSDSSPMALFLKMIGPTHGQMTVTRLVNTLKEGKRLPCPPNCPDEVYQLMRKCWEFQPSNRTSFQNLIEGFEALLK
T2 sequence (Q9UM73 19-1620): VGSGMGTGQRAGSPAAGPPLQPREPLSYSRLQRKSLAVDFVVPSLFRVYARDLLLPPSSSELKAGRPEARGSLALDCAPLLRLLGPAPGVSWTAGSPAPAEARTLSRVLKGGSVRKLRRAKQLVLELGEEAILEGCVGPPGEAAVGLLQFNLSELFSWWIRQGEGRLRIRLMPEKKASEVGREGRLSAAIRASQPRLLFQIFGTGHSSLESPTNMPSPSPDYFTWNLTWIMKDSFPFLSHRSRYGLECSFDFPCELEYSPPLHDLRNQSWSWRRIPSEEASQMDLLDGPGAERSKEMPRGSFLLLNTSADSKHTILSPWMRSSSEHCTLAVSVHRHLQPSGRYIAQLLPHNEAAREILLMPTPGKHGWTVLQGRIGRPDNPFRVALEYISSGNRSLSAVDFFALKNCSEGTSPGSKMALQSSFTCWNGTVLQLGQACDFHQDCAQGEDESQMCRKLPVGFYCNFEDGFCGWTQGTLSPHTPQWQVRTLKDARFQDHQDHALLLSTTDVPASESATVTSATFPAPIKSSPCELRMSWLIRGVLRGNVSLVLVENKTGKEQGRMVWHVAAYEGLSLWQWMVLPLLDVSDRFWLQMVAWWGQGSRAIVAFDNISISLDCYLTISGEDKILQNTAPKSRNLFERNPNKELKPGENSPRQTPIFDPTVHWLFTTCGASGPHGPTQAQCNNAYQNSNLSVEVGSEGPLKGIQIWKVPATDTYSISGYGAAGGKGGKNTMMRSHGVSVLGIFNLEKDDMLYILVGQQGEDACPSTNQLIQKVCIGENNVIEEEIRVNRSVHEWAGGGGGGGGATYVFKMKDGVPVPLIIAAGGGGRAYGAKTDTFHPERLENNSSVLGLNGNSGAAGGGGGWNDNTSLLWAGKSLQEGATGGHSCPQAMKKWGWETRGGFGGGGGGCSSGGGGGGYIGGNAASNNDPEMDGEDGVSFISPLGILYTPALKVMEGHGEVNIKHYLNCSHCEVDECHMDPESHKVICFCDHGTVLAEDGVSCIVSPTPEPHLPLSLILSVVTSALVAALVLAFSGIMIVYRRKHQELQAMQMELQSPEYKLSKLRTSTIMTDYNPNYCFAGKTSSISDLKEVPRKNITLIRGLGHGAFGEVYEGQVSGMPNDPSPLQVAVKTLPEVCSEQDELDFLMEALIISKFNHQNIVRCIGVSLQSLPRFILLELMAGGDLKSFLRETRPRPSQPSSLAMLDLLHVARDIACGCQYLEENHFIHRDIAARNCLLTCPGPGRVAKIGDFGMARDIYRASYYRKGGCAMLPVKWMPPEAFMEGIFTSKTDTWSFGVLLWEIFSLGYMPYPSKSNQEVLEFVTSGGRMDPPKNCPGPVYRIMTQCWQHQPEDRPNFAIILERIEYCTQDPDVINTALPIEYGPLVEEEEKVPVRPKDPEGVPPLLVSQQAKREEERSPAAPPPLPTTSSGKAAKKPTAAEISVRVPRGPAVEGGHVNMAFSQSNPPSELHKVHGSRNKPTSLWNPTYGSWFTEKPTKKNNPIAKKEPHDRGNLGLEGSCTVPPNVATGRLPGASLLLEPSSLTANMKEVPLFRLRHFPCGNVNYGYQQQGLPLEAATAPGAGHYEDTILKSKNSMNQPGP
T1 sequence (O60674 828-1132): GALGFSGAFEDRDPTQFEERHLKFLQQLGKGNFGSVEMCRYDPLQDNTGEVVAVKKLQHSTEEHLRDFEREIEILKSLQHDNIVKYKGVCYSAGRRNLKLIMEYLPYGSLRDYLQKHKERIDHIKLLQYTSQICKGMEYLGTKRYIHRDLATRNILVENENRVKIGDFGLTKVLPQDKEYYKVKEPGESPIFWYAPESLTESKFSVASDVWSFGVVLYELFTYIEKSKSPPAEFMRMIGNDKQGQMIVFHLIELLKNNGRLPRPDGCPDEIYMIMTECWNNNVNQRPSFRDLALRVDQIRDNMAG
Chain of TYK2 (P29597 whole entry): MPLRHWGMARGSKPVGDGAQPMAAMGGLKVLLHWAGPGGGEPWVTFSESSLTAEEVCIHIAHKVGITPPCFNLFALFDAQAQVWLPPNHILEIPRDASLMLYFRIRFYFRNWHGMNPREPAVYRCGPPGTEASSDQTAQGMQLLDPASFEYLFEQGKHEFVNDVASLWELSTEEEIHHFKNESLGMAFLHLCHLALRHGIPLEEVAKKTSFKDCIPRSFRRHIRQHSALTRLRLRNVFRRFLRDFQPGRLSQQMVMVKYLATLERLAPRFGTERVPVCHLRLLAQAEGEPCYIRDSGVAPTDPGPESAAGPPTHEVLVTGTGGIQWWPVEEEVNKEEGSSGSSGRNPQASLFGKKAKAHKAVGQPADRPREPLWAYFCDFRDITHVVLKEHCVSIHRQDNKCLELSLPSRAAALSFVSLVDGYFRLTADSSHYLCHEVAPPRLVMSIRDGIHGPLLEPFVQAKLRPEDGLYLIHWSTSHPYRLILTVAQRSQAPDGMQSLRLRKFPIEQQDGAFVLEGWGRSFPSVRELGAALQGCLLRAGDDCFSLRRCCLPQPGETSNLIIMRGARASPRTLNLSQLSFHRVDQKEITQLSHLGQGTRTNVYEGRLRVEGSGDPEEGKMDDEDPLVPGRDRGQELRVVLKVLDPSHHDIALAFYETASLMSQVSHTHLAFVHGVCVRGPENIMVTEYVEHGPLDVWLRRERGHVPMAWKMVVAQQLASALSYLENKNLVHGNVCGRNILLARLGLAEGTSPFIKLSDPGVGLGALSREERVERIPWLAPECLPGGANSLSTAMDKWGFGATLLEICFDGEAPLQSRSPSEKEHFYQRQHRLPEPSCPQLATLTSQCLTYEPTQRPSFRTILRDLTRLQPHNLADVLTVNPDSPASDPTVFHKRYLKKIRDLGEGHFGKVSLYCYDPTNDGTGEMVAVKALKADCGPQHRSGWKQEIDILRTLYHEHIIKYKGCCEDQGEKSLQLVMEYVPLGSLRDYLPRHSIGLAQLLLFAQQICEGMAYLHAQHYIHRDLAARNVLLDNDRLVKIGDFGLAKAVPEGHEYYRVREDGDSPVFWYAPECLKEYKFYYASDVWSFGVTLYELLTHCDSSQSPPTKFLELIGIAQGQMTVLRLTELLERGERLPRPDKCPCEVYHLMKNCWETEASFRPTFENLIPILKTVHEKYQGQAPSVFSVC

SMILES | IC50 ([1]; Table B1) [nM] | IC50 ([3]; Table B1) [nM] | IC50 ([4]; Table B1) [nM] | IC50 ([5]; Table B1) [nM] | IC50 [2, 11] [nM] | other results
CN1CCOc2cc(S(=O)(=O)Nc3ccc4cc3CCc3cccc(c3)Nc3ncc(Cl)c(n3)N4)ccc21 [Example B165, N-[6-Chloro-2,4,8,22-tetraazatetracyclo[14.3.1.1(3,7).1(9,13)]docosa-1(20),3(22),4,6,9(21),10,12,16,18-nonaen-12-yl]-4-methyl-3,4-dihydro-2H-1,4-benzoxazine-7-sulfonamide trifluoroacetate] | 10 | 20 | 13 | 83 | – | ALK % of inhibition at a concentration of 500 nM or 1 mM [2, 6]: 10%
Cn1ccc2c(NC(=O)N3CCN(C(=O)COc4ccc5cc4CCc4cccc(c4)Nc4ncc(Cl)c(n4)N5)CC3)cccc21 [Example A11, 4-({[6-Chloro-2,4,8,22-tetraazatetracyclo[14.3.1.1(3,7).1(9,13)]docosa-1(20),3(22),4,6,9(21),10,12,16,18-nonaen-12-yl]oxy}acetyl)-N-(1-methyl-1H-indol-4-yl)piperazine-1-carboxamide trifluoroacetate] | – | – | – | – | – | IC50 [1, 7]: 5.6 nM; ALK % of inhibition at a concentration of 500 nM or 1 mM [2, 8]: 12%; IC50 [3]: 9.5 nM; IC50 [4, 9]: 3.4 nM; IC50 [5, 10]: 16 nM
Cc1n[nH]c(C)c1-c1cc2cc(c1)Nc1ncc(Cl)c(n1)Nc1cccc(c1)OCC2 [Example D30, 6-Chloro-19-(3,5-dimethyl-1H-pyrazol-4-yl)-14-oxa-2,4,8,23-tetraazatetracyclo[15.3.1.1(3,7).1(9,13)]tricosa-1(21),3(23),4,6,9(22),10,12,17,19-nonaene bis(trifluoroacetate)] | – | – | – | – | – | IC50 ([1]; Table D1): 0.6 nM; IC50 ([2]; Table D1, 90 μM ATP): 157 nM; IC50 ([3]; Table D1): 15 nM; IC50 ([4]; Table D1): 4.1 nM; IC50 ([5]; Table D1): 49 nM
O=C(Nc1cc2cc(c1)Nc1nc(ncc1Cl)Nc1cccc(c1)CC2)NC1CCCC1 [Example B215, N-[6-Chloro-2,4,8,22-tetraazatetracyclo[14.3.1.1(3,7).1(9,13)]docosa-1(20),3(22),4,6,9(21),10,12,16,18-nonaen-11-yl]-N′-cyclopentylurea trifluoroacetate] | 43 | 766 | 91 | 189 | – | ALK % of inhibition at a concentration of 500 nM or 1 mM [2, 6]: 31%
N#CCC(=O)N1CCC(CC(=O)Nc2ccc3cc2CCc2cncc(c2)Nc2ncc(Cl)c(n2)N3)CC1 [Example A245, N-[6-Chloro-2,4,8,18,22-pentaazatetracyclo[14.3.1.1(3,7).1(9,13)]docosa-1(20),3(22),4,6,9(21),10,12,16,18-nonaen-12-yl]-2-[1-(cyanoacetyl)piperidin-4-yl]acetamide bis(trifluoroacetate)] | – | – | – | – | – | IC50 [1, 7]: 117 nM; ALK % of inhibition at a concentration of 500 nM or 1 mM [2, 8]: 47%; IC50 [3]: 41 nM; IC50 [4, 9]: 3.2 nM; IC50 [5, 10]: > 400 nM

Further lines, with some results ahead:

IC50 ([1]; Table B1) [nM] | IC50 ([3]; Table B1) [nM] | IC50 ([4]; Table B1) [nM] | IC50 ([5]; Table B1) [nM] | IC50 [2, 11] [nM] | SMILES | other results
0.73 | 3.2 | 1.2 | 10 | 150 | N#Cc1ccc(C(=O)Nc2ccc3cc2CCc2cccc(c2)Nc2ncc(Cl)c(n2)N3)cc1 [Example B64, N-[6-Chloro-2,4,8,22-tetraazatetracyclo[14.3.1.1(3,7).1(9,13)]docosa-1(20), 3(22),4,6,9(21),10,12,16,18-nonaen-12-yl]-4-cyanobenzamide trifluoroacetate] | –
0.91 | 3.3 | 2.7 | 4.7 | 300 | Cn1cncc1C(=O)Nc1ccc2cc1CCc1cccc(c1)Nc1ncc(Cl)c(n1)N2 [Example B51, N-[6-Chloro-2,4,8,22-tetraazatetracyclo[14.3.1.1(3,7).1(9,13)]docosa-1(20), 3(22),4,6,9(21),10,12,16,18-nonaen-12-yl]-1-methyl-1H-imidazole-5-carboxamide bis(trifluoroacetate)] | –
1.8 | 6.3 | 3.7 | 17 | 910 | O=C(Nc1ccc2cc1CCc1cccc(c1)Nc1ncc(Cl)c(n1)N2)c1nccs1 [Example B52, N-[6-Chloro-2,4,8,22-tetraazatetracyclo[14.3.1.1(3,7).1(9,13)]docosa-1(20), 3(22),4,6,9(21),10,12,16,18-nonaen-12-yl]-1,3-thiazole-2-carboxamide trifluoroacetate] | –
